Assay results: patent EP1096933B1, “USE OF AN INHIBITOR OF CYTOCHROME P450 OPTIONALLY COMBINED WITH AN ANTIFUNGAL AGENT FOR TREATING MYCOSES” (priority 1998, dated 2000)
Where two headings read alike, the source gives them in different places.

Assays:
Test in all cases: growth of strains streaked on Sabouraud agar containing the products
Type in all cases: cell-based
[1] = test system: Trichophyton rubrum; details: Tric.Rubrum; for activity at 20 µg/mL: read-out: % DE CROISSANCE; for inhibition at 2 µg/mL / inhibition at 10 µg/mL / inhibition at 20 µg/mL / inhibition at 50 µg/mL: read-out: inhibition de la croissance
Protocol: (§1) Ces molécules ont été incorporées dans un milieu gélosé dit de Sabouraud (peptone 10g/l, glucose 10 g/l, gomme agar 15 g/l).
(§2) Des souches de diverses espèces de champignons ont été ensemencées par stries par la méthode de Stires.
(§3) Le pourcentage de croissance a été mesuré au cours du temps, pour des périodes allant jusqu'à 21 jours, pour certaines des souches testées.
(§4) Les quantités de pipéronyl butoxyde, et de cyclopyroxolamine utilisées sont identiques et sont de 10 ou 20 µg/ml dans le cas de l'association entre ces deux composés.
(§5) Dans le cas de l'association entre le pipéronyl butoxyde et l'éconazole, elles sont respectivement de 10 ou 20 µg/ml de pipéronyl butoxyde et de 1 µg/ml d'éconazole.
(§6) Des souches appartenant aux espèces suivantes ont été testées: Microsporum canis, Trichophyton rubrum, Trichophyton interdigitale, Trichophyton mentagrophytes, Microsporum persicolor, Epidermophyton floccosum, Trichophyton violaceum et Trichophyton soudanense.
(§7) L'activité du pipéronyl butoxyde seul a été testée à diverses concentrations, comme indiqué dans le tableau 1 sur le milieu de Sabouraud, dépourvu de tout autre fongicide.

[2] = test system: Epidermophyton floccosum; details: Epid.Flocosum; for activity at 10 µg/mL: read-out: % DE CROISSANCE; for inhibition at 2 µg/mL / inhibition at 10 µg/mL / inhibition at 20 µg/mL / inhibition at 50 µg/mL: read-out: inhibition de la croissance
Protocol: as §1, §2, §3, §4, §5, §6, §7

[3] = test system: Trichophyton mentagrophytes; details: Tric.Mentagophytes; for activity at 20 µg/mL: read-out: % DE CROISSANCE; for inhibition at 2 µg/mL / inhibition at 10 µg/mL / inhibition at 20 µg/mL / inhibition at 50 µg/mL: read-out: inhibition de la croissance
Protocol: as §1, §2, §3, §4, §5, §6, §7

[4] = test system: Microsporum canis; details: for activity at 20 µg/mL: read-out: % DE CROISSANCE
Protocol: as §1, §2, §3, §4, §5, §6, §7

[5] = 144 h, J6, 20µg/ml each product
[6] = 240 h, J10, 20µg/ml each product
[7] = 336 h, J14, 20µg/ml each product

Molecule `CCCCOCCOCCOCc1cc2c(cc1CCC)OCO2` [Piperonyl., pipéronyl butoxyde] has an activity at 20 µg/mL ([1]; 0 h, J0, 20µg/ml each product) of 0%, an activity at 20 µg/mL ([1]; 96 h, J4, 20µg/ml each product) of 0% and an activity at 20 µg/mL [1, 5] of 20%. For the same molecule, the activity at 20 µg/mL [1, 6] was 35%, the activity at 20 µg/mL [1, 7] was 50% and the inhibition at 2 µg/mL ([1]; J+4, 2 µg/ml) was 15%. For the same molecule, the inhibition at 10 µg/mL ([1]; J+4, 10 µg/ml) was 10%, the inhibition at 20 µg/mL ([1]; J+4, 20 µg/ml) was 0% and the inhibition at 50 µg/mL ([1]; J+4, 50 µg/ml) was 0%. For the same molecule, the inhibition at 2 µg/mL ([1]; J+10, 2 µg/ml) was 90%, the inhibition at 10 µg/mL ([1]; J+10, 10 µg/ml) was 60% and the inhibition at 20 µg/mL ([1]; J+10, 20 µg/ml) was 35%. For the same molecule, the inhibition at 50 µg/mL ([1]; J+10, 50 µg/ml) was 0%, the inhibition at 2 µg/mL ([1]; J+14, 2 µg/ml) was 100% and the inhibition at 10 µg/mL ([1]; J+14, 10 µg/ml) was 75%. The inhibition at 20 µg/mL ([1]; J+14, 20 µg/ml) was 50%, the inhibition at 50 µg/mL ([1]; J+14, 50 µg/ml) was 0% and the activity at 10 µg/mL ([2]; 0 h, J0, 10µg/ml each product) was 0%. The activity at 10 µg/mL ([2]; 96 h, J4, 10µg/ml each product) was 0%, the activity at 10 µg/mL ([2]; 144 h, J6, 10µg/ml each product) was 10% and the activity at 10 µg/mL ([2]; 240 h, J10, 10µg/ml each product) was 45%. It also gave an activity at 10 µg/mL ([2]; 336 h, J14, 10µg/ml each product) of 70%, an inhibition at 2 µg/mL ([2]; J+4, 2 µg/ml) of 15% and an inhibition at 10 µg/mL ([2]; J+4, 10 µg/ml) of 0%. It also gave an inhibition at 20 µg/mL ([2]; J+4, 20 µg/ml) of 0%, an inhibition at 50 µg/mL ([2]; J+4, 50 µg/ml) of 0% and an inhibition at 2 µg/mL ([2]; J+10, 2 µg/ml) of 90%. It also gave an inhibition at 10 µg/mL ([2]; J+10, 10 µg/ml) of 45%, an inhibition at 20 µg/mL ([2]; J+10, 20 µg/ml) of 25% and an inhibition at 50 µg/mL ([2]; J+10, 50 µg/ml) of 0%. For the same molecule, the inhibition at 2 µg/mL ([2]; J+14, 2 µg/ml) was 100%, the inhibition at 10 µg/mL ([2]; J+14, 10 µg/ml) was 70% and the inhibition at 20 µg/mL ([2]; J+14, 20 µg/ml) was 30%. For the same molecule, the inhibition at 50 µg/mL ([2]; J+14, 50 µg/ml) was 0%, the activity at 20 µg/mL ([3]; 0 h, J0, 20µg/ml each product) was 0% and the activity at 20 µg/mL ([3]; 96 h, J4, 20µg/ml each product) was 0%. It also gave an activity at 20 µg/mL [3, 5] of 25%, an activity at 20 µg/mL [3, 6] of 60% and an activity at 20 µg/mL [3, 7] of 65%. The inhibition at 2 µg/mL ([3]; J+4, 2 µg/ml) was 30%, the inhibition at 10 µg/mL ([3]; J+4, 10 µg/ml) was 10% and the inhibition at 20 µg/mL ([3]; J+4, 20 µg/ml) was 0%. For the same molecule, the inhibition at 50 µg/mL ([3]; J+4, 50 µg/ml) was 0%, the inhibition at 2 µg/mL ([3]; J+10, 2 µg/ml) was 80% and the inhibition at 10 µg/mL ([3]; J+10, 10 µg/ml) was 60%. The inhibition at 20 µg/mL ([3]; J+10, 20 µg/ml) was 60%, the inhibition at 50 µg/mL ([3]; J+10, 50 µg/ml) was 0% and the inhibition at 2 µg/mL ([3]; J+14, 2 µg/ml) was 100%. The inhibition at 10 µg/mL ([3]; J+14, 10 µg/ml) was 70%, the inhibition at 20 µg/mL ([3]; J+14, 20 µg/ml) was 65% and the inhibition at 50 µg/mL ([3]; J+14, 50 µg/ml) was 0%. The activity at 20 µg/mL ([4]; 0 h) was 0%, the activity at 20 µg/mL ([4]; 96 h) was 0% and the activity at 20 µg/mL ([4]; 144 h) was 5%. The activity at 20 µg/mL ([4]; 240 h) was 45%, the activity at 20 µg/mL ([4]; 336 h) was 60% and the inhibition at 2 µg/mL ([4]; Micro. Canis, J+4, 2 µg/ml, read-out: inhibition de la croissance) was 20%. For the same molecule, the inhibition at 10 µg/mL ([4]; Micro. Canis, J+4, 10 µg/ml, read-out: inhibition de la croissance) was 15% and the inhibition at 20 µg/mL ([4]; Micro. Canis, J+4, 20 µg/ml, read-out: inhibition de la croissance) was 0%.
